Patent US20140303092A1 (CHIMERIX, INC., priority 2011, published 2014)

Assay: Study HDP-CDV-201: safety and tolerability (adverse events, laboratory abnormalities, discontinuations)
Type: in vivo, human (adult allogeneic HSCT recipients)
Protocol: Clinical Studies of HDP-CDV were performed and described in detail in the following Examples. For example, HDP-CDV-201 is a placebo-controlled, dose-escalating trial in HSCT CMV (R+) recipients, evaluating the ability of HDP-CDV to prevent or control CMV infection was carried out. Five cohorts were established in which participants or subjects received either placebo or the HDP-CDV orally, in doses ranging from 40 mg weekly (QW) to 200 mg twice weekly (BIW). Subjects who were post-HSCT were enrolled at the time of engraftment and randomized to HDP-CDV or placebo (3 to 1 ratio) and received blinded therapy until approximately 100 day post-transplantation. HDP-CDV doses were 40 mg QW, 100 mg QW, 200 mg QW, 200 mg BIW and 100 mg BIW. Escalation to the next dose was decided by the data monitoring committee after review of the safety data from the previous Cohort. Subjects who developed CMV disease or CMV infection requiring pre-emptive therapy with local standard of care were discontinued from blinded therapy and followed for 4 weeks. Subjects who completed treatment with blinded therapy were followed for 8 weeks post-therapy.
Data from Study HDP-CDV-201 also provided characterization of the safety and tolerability profile of HDP-CDV when administered for the prevention or control of CMV infection in high risk (R^+) post-HSCT adult subjects.
The Safety population (SAFETY) included all randomized subjects who took at least one dose of study treatment. This population was used to summarize safety outcomes based on the treatment actually received, in cases where a subject was treated contrary to the randomization schedule.
The safety and tolerability profile of HDP-CDV, including subject demographics and Baseline characteristics; the AE profile; and laboratory abnormalities of interest were analyzed in the cohorts followed in this investigation.
Subjects completing the treatment period received a full course of study medication; those completing the entire study attended visits through 8 weeks of follow up. Subjects who discontinued treatment may have done so for protocol specified reasons (e.g. development of clinically significant CMV infection requiring preemptive treatment with excluded anti-CMV medications) or for other reasons (e.g., withdrawal, adverse events, loss to follow-up). The disposition of subjects in Study HDP-CDV-201 during the double-blind, placebo-controlled treatment period (through Week 11) is listed by dosing Cohort in TABLE 23.
Adverse events were examined by severity to ensure that all safety signals were identified in this study population. Because of the frequency of events in HSCT recipients, particular attention was given to evaluation of Grade 3 […], 4 (severe), and 5 (fatal) adverse events.
Only those preferred terms for which at least one Grade 3 or higher event was experienced in any treatment group are listed. Cytomegalovirus-related AEs are excluded from this analysis.
HDP-CDV is a lipid conjugate of CDV. Because CDV is known to have adverse effects on renal function and bone marrow, decreased GFR and persistent neutropenia were identified as AEs of special interest. Key renal and hematological (TABLE 30) laboratory parameters were measured and listed below by Study HDP-CDV-201 treatment groups. TABLE 30 includes abnormal levels of serum creatinine, neutrophils, platelets, WBCs, and hemoglobin and includes data at Screening and during the treatment period.
A common metric for unit based dosing of medications is by weight (mg/kg). When the distribution of weights was examined for all subjects participating in the study, the median was 78 kg and the lower 25th percentile weight was approximately 65 kg, which translates to a cut-off of ˜3 mg/kg for a 200 mg total weekly dose. Based upon this approach, a cut-off of 3 mg/kg was used to assess the frequency of diarrhea and associated GI AEs reported for the subjects in Cohorts 3 or 4a (TABLE 40).

[1] = Cohort 4, 200 mg BIW, through Week 11

CCCCCCCCCCCCCCCCOCCCOP(=O)(O)COC(CO)Cn1ccc(N)nc1=O (stereo not drawn) [HDP-CDV]
0: ALT (Screening) >20 × ULN, subjects (Cohort 4A, 100 mg BIW) | AST (Screening) >20 × ULN, subjects (Cohort 4A, 100 mg BIW) | AST (any time during therapy) >10 × ULN-20 × ULN, subjects (Cohort 4A, 100 mg BIW) | AST (any time during therapy) >20 × ULN, subjects (Cohort 4A, 100 mg BIW) | Alkaline Phosphatase (Screening) >2.5-5.0 × ULN, subjects (Cohort 4A, 100 mg BIW) | Alkaline Phosphatase (Screening) >5.0-20.0 × ULN, subjects (Cohort 4A, 100 mg BIW) | Alkaline Phosphatase (Screening) >20.0 × ULN, subjects (Cohort 4A, 100 mg BIW) | Alkaline Phosphatase (any time during therapy) >5.0-20.0 × ULN, subjects (Cohort 4A, 100 mg BIW) | Alkaline Phosphatase (any time during therapy) >20.0 × ULN, subjects (Cohort 4A, 100 mg BIW) | GI AE Leading to Study Drug Discontinuation: Dyspepsia, subjects (Cohort 4A, 100 mg BIW) | Gastrointestinal AE Abdominal distention, subjects (Cohort 4A, 100 mg BIW) | Gastrointestinal AE Diverticulum intestinal haemorragic, subjects (Cohort 4A, 100 mg BIW) | Gastrointestinal AE Dysphagia, subjects (Cohort 4A, 100 mg BIW) | Gastrointestinal AE Epigastric discomfort, subjects (Cohort 4A, 100 mg BIW) | Gastrointestinal AE GERD, subjects (Cohort 4A, 100 mg BIW) | Gastrointestinal AE Gastritis, subjects (Cohort 4A, 100 mg BIW) | Gastrointestinal AE Haematochezia, subjects (Cohort 4A, 100 mg BIW) | Gastrointestinal AE Large intestinal ulcer, subjects (Cohort 4A, 100 mg BIW) | Gastrointestinal AE Odynophagia, subjects (Cohort 4A, 100 mg BIW) | Gastrointestinal AE Oesophagitis, subjects (Cohort 4A, 100 mg BIW) | Hepatobiliary clinical AE Cholelithiasis, subjects (Cohort 4A, 100 mg BIW) | Hepatobiliary clinical AE Hepatomegaly, subjects (Cohort 4A, 100 mg BIW) | Hepatobiliary clinical AE Jaundice, subjects (Cohort 4A, 100 mg BIW) | Hepatobiliary clinical AE Liver injury, subjects (Cohort 4A, 100 mg BIW)
23 (76.7%) n (%): Subjects who permanently discontinued treatment [1]
5 (10.0%): GI AEs Leading to Study Drug Discontinuation: Total subjects discontinued (Cohort 4A, 100 mg BIW)
2 (4.0%): AST (any time during therapy) >3 × ULN-5 × ULN, subjects (Cohort 4A, 100 mg BIW) | GI AE Leading to Study Drug Discontinuation: Diarrhoea, subjects (Cohort 4A, 100 mg BIW) | Gastrointestinal AE Abdominal pain upper, subjects (Cohort 4A, 100 mg BIW) | Gastrointestinal AE Constipation, subjects (Cohort 4A, 100 mg BIW) | Gastrointestinal AE Retching, subjects (Cohort 4A, 100 mg BIW)
1 (2.2%): ALT (Screening) >3 × ULN-5 × ULN, subjects (Cohort 4A, 100 mg BIW) | ALT (Screening) >5 × ULN-10 × ULN, subjects (Cohort 4A, 100 mg BIW) | ALT (Screening) >10 × ULN-20 × ULN, subjects (Cohort 4A, 100 mg BIW) | AST (Screening) >3 × ULN-5 × ULN, subjects (Cohort 4A, 100 mg BIW) | AST (Screening) >5 × ULN-10 × ULN, subjects (Cohort 4A, 100 mg BIW) | AST (Screening) >10 × ULN-20 × ULN, subjects (Cohort 4A, 100 mg BIW)
17 (34.0%): Gastrointestinal AE Nausea, subjects (Cohort 4A, 100 mg BIW)
22 (44.0%): Gastrointestinal AE Vomiting, subjects (Cohort 4A, 100 mg BIW)
1 subject(s): subjects discontinued due to neutropenia (Cohort 4A)
24 (80.0%) n (%): TEAE Acute GVHD (Cohort 4, 200 mg BIW, N = 30)
13 (26.0%): Gastrointestinal AE Abdominal pain, subjects (Cohort 4A, 100 mg BIW)
11 (22.0%): Alkaline Phosphatase (any time during therapy) >ULN-[…] ULN, subjects (Cohort 4A, 100 mg BIW)
8 (17.4%): Alkaline Phosphatase (Screening) >ULN-[…] ULN, subjects (Cohort 4A, 100 mg BIW)
4 (13.3%) n (%): TEAE Neutropenia (Cohort 4, 200 mg BIW, N = 30)
1 (2.0%): ALT (any time during therapy) >10 × ULN-20 × ULN, subjects (Cohort 4A, 100 mg BIW) | ALT (any time during therapy) >20 × ULN, subjects (Cohort 4A, 100 mg BIW) | GI AE Leading to Study Drug Discontinuation: Abdominal pain, subjects (Cohort 4A, 100 mg BIW) | GI AE Leading to Study Drug Discontinuation: Nausea, subjects (Cohort 4A, 100 mg BIW) | GI AE Leading to Study Drug Discontinuation: Vomiting, subjects (Cohort 4A, 100 mg BIW) | Gastrointestinal AE Haemorroids, subjects (Cohort 4A, 100 mg BIW)
7 (23.3%) n (%): TEAE AST increased (Cohort 4, 200 mg BIW, N = 30) | Subjects completed treatment [1]
3 (6.0%): AST (any time during therapy) >5 × ULN-10 × ULN, subjects (Cohort 4A, 100 mg BIW) | Alkaline Phosphatase (any time during therapy) >2.5-5.0 × ULN, subjects (Cohort 4A, 100 mg BIW) | Gastrointestinal AE Flatulence, subjects (Cohort 4A, 100 mg BIW) | Hepatobiliary clinical AE Hyperbilirubinaemia, subjects (Cohort 4A, 100 mg BIW)
4 (8.0%): ALT (any time during therapy) >5 × ULN-10 × ULN, subjects (Cohort 4A, 100 mg BIW) | Gastrointestinal AE Abdominal discomfort, subjects (Cohort 4A, 100 mg BIW) | Gastrointestinal AE Dyspepsia, subjects (Cohort 4A, 100 mg BIW)
21 (70.0%) n (%): TEAE Diarrhoea (Cohort 4, 200 mg BIW, N = 30)
4 (13.3%): All AEs, Grade 5 (deaths) (Cohort 4, 200 mg BIW, N = 30, entire study duration)
1: Grade of hepatobiliary AE hyperbilirubinemia, subject 4042 (Cohort 4, drug interrupted)
10 (33.3%) n (%): TEAE ALT increased (Cohort 4, 200 mg BIW, N = 30)
3: Grade of hepatobiliary AE acute liver injury, subject 4008 (Cohort 4, drug withdrawn)
2 (6.7%) n (%): TEAE Anxiety (Cohort 4, 200 mg BIW, N = 30) | TEAE Creatinine increased (Cohort 4, 200 mg BIW, N = 30) | TEAE GI Reflux Disease (Cohort 4, 200 mg BIW, N = 30) | TEAE Hyponatraemia (Cohort 4, 200 mg BIW, N = 30) | TEAE Insomnia (Cohort 4, 200 mg BIW, N = 30) | TEAE Pyrexia (Cohort 4, 200 mg BIW, N = 30) | TEAE Tremor (Cohort 4, 200 mg BIW, N = 30)
not related: Relationship of hepatobiliary AE hyperbilirubinemia, subject 4042 (Cohort 4, drug interrupted)
11 (36.7%) n (%): TEAE Abdominal pain (Cohort 4, 200 mg BIW, N = 30) | TEAE Nausea (Cohort 4, 200 mg BIW, N = 30)
8 (26.7%) n (%): TEAE Hyperglycaemia (Cohort 4, 200 mg BIW, N = 30) | TEAE Vomiting (Cohort 4, 200 mg BIW, N = 30)
recovered/resolved: Outcome of hepatobiliary AE hyperbilirubinemia, subject 4042 (Cohort 4, drug interrupted) | Outcome of hepatobiliary AE acute liver injury, subject 4008 (Cohort 4, drug withdrawn)
26 (52.0%): Gastrointestinal AE Diarrhoea, subjects (Cohort 4A, 100 mg BIW)
3 (10.0%) n (%): TEAE Abdominal pain, Upper (Cohort 4, 200 mg BIW, N = 30) | TEAE Acute Renal Failure (Cohort 4, 200 mg BIW, N = 30) | TEAE Back Pain (Cohort 4, 200 mg BIW, N = 30) | TEAE Blood lactate dehydrogenase increased (Cohort 4, 200 mg BIW, N = 30) | TEAE Dysgeusia (Cohort 4, 200 mg BIW, N = 30) | TEAE Gamma-glutamyltransferase increased (Cohort 4, 200 mg BIW, N = 30) | TEAE Generalized oedema (Cohort 4, 200 mg BIW, N = 30) | TEAE Hyperkalemia (Cohort 4, 200 mg BIW, N = 30) | TEAE Hypocalcaemia (Cohort 4, 200 mg BIW, N = 30) | TEAE Increased leukocytosis (Cohort 4, 200 mg BIW, N = 30) | TEAE Liver function test abnormal (Cohort 4, 200 mg BIW, N = 30) | TEAE Malnutrition (Cohort 4, 200 mg BIW, N = 30) | TEAE Oedema peripheral (Cohort 4, 200 mg BIW, N = 30) | TEAE Recurrent flatulence (Cohort 4, 200 mg BIW, N = 30)
1 (3.3%): Nausea leading to study drug withdrawal (Cohort 4, 200 mg BIW, N = 30)
10 (20.0%): ALT (any time during therapy) >3 × ULN-5 × ULN, subjects (Cohort 4A, 100 mg BIW)
0%: Dyspepsia leading to study drug withdrawal (Cohort 4, 200 mg BIW, N = 30) | Vomiting leading to study drug withdrawal (Cohort 4, 200 mg BIW, N = 30)
5 (16.7%) n (%): TEAE Cytomegalovirus viremia (Cohort 4, 200 mg BIW, N = 30) | TEAE Decreased appetite (Cohort 4, 200 mg BIW, N = 30) | TEAE Hyperbilirubinaemia (Cohort 4, 200 mg BIW, N = 30) | TEAE Hypokalaemia (Cohort 4, 200 mg BIW, N = 30) | TEAE Thrombocytopenia (Cohort 4, 200 mg BIW, N = 30)
1 (3.3%) n (%): TEAE Arthralgias (Cohort 4, 200 mg BIW, N = 30) | TEAE Oral Candidiasis (Cohort 4, 200 mg BIW, N = 30) | TEAE Pneumonia (Cohort 4, 200 mg BIW, N = 30) | TEAE Staphylococcal Bacteremia (Cohort 4, 200 mg BIW, N = 30)
0 n (%): TEAE Acute Myeloid Leukemia recurrent (Cohort 4, 200 mg BIW, N = 30) | TEAE Fatigue (Cohort 4, 200 mg BIW, N = 30) | TEAE Renal Failure (Cohort 4, 200 mg BIW, N = 30)
possibly related: Relationship of hepatobiliary AE acute liver injury, subject 4008 (Cohort 4, drug withdrawn)
